# Data taken from ChEMBL document CHEMBL1137697, “In vitro and in vivo antitrypanosomatid activity of 5-nitroindazoles” (Eur J Med Chem, 2009).
# Activity calls are given as the source filed them. The calls are words filed in the database; no cut-off is given here.
# Key:
# [1] = system: Leishmania braziliensis; test: Antileishmanial activity against Leishmania braziliensis MHOM/BR/75/M2903 promastigote assessed as lysis at 100 ug/mL after 72 hrs; assay type: functional
# [2] = system: Trypanosoma cruzi; test: Antitrypanosomal activity against Trypanosoma cruzi bloodstream trypomastigote in mouse blood assessed as lysis of trypomastigotes at 250 ug/mL after 24 hrs relative to control; assay type: functional
# [3] = system: Leishmania amazonensis; test: Antileishmanial activity against Leishmania amazonensis MHOM/BR/PH8 promastigote assessed as lysis at 100 ug/mL after 72 hrs; assay type: functional
# [4] = system: Leishmania infantum; test: Antileishmanial activity against Leishmania infantum MHOM/FR/91/LEM2259 promastigote assessed as lysis at 100 ug/mL after 72 hrs; assay type: functional
# [5] = system: Trypanosoma cruzi; test: Antitrypanosomal activity against Trypanosoma cruzi bloodstream trypomastigote in mouse blood after 24 hrs relative to control; assay type: functional, organism-based
# [6] = system: Trypanosoma cruzi; test: Inhibition of respiration in Trypanosoma cruzi Tulahuen 2 assessed as oxygen uptake at 1.032 mM; assay type: functional; design: scale not given: the % may be the effect or the level left
# [7] = system: J774; test: Cytotoxicity in mouse J774 cells at 100 ug/mL after 24 hrs; assay type: cell-based; settings: j774, 24 h
# [8] = system: J774; test: Cytotoxicity in mouse J774 cells at 100 ug/mL after 48 hrs; assay type: cell-based; settings: j774, 48 h
# [9] = system: Trypanosoma cruzi; test: Inhibition of respiration in Trypanosoma cruzi Tulahuen 2 assessed as oxygen uptake at 0.091 mM; assay type: functional; design: scale not given: the % may be the effect or the level left
# [10] = system: Trypanosoma cruzi; test: Inhibition of respiration in Trypanosoma cruzi Tulahuen 2 assessed as oxygen uptake at 0.172 mM; assay type: functional; design: scale not given: the % may be the effect or the level left
# [11] = system: Trypanosoma cruzi; test: Inhibition of respiration in Trypanosoma cruzi Tulahuen 2 assessed as oxygen uptake at 0.272 mM; assay type: functional; design: scale not given: the % may be the effect or the level left
# [12] = system: Trypanosoma cruzi; test: Antitrypanosomal activity against Trypanosoma cruzi bloodstream trypomastigote infected in BALB/c mouse assessed as parasitemia at 30 mg/kg, po after 60 days by colorimetric method; assay type: functional, organism-based; design: dose 30 mg/kg
# [13] = system: Trypanosoma cruzi; test: Inhibition of respiration in Trypanosoma cruzi Tulahuen 2 assessed as oxygen uptake at 0.515 mM; assay type: functional; design: scale not given: the % may be the effect or the level left
# [14] = Toxicity in BALB/c mouse assessed as survival fraction at 30 mg/kg, po after 9 weeks; assay type: organism-based; design: dose 30 mg/kg, route oral; settings: in vivo
# [15] = system: Trypanosoma cruzi; test: Inhibition of respiration in Trypanosoma cruzi Tulahuen 2 assessed as oxygen uptake at 1.030 mM; assay type: functional; design: scale not given: the % may be the effect or the level left
# [16] = system: Trypanosoma cruzi; test: Antitrypanosomal activity against Trypanosoma cruzi bloodstream trypomastigote infected in BALB/c mouse assessed as antibodies at 30 mg/kg, po after 60 days by colorimetric method; assay type: functional, organism-based; design: dose 30 mg/kg
# [17] = system: Trypanosoma cruzi; test: Inhibition of respiration in Trypanosoma cruzi Tulahuen 2 assessed as oxygen uptake at 0.258 mM; assay type: functional; design: scale not given: the % may be the effect or the level left
# [18] = system: Trypanosoma cruzi; test: Antitrypanosomal activity against Trypanosoma cruzi bloodstream trypomastigote infected in BALB/c mouse assessed as antibodies at 50 mg/kg, po after 60 days by colorimetric method; assay type: functional, organism-based; design: dose 50 mg/kg
# [19] = system: Trypanosoma cruzi; test: Antitrypanosomal activity against Trypanosoma cruzi bloodstream trypomastigote infected in BALB/c mouse assessed as parasitemia at 50 mg/kg, po after 60 days by colorimetric method; assay type: functional, organism-based; design: dose 50 mg/kg
# [20] = Toxicity in BALB/c mouse assessed as survival fraction at 50 mg/kg, po after 9 weeks; assay type: organism-based; design: dose 50 mg/kg, route oral; settings: in vivo
# [21] = system: Trypanosoma cruzi; test: Inhibition of respiration in Trypanosoma cruzi Tulahuen 2 assessed as oxygen uptake at 0.724 mM; assay type: functional; design: scale not given: the % may be the effect or the level left
# [22] = system: Trypanosoma cruzi; test: Inhibition of respiration in Trypanosoma cruzi Tulahuen 2 assessed as oxygen uptake; assay type: functional, organism-based
# [23] = system: Trypanosoma cruzi; test: Inhibition of respiration in Trypanosoma cruzi Tulahuen 2 assessed as oxygen uptake at 0.181 mM; assay type: functional; design: scale not given: the % may be the effect or the level left
# [24] = system: Trypanosoma cruzi; test: Inhibition of respiration in Trypanosoma cruzi Tulahuen 2 assessed as oxygen uptake at 0.543 mM; assay type: functional; design: scale not given: the % may be the effect or the level left
# [25] = system: Trypanosoma cruzi; test: Inhibition of respiration in Trypanosoma cruzi Tulahuen 2 assessed as oxygen uptake at 0.362 mM; assay type: functional; design: scale not given: the % may be the effect or the level left
# [26] = system: Trypanosoma cruzi; test: Inhibition of respiration in Trypanosoma cruzi Tulahuen 2 assessed as oxygen uptake at 0.426 mM; assay type: functional; design: scale not given: the % may be the effect or the level left
# [27] = system: Trypanosoma cruzi; test: Inhibition of respiration in Trypanosoma cruzi Tulahuen 2 assessed as oxygen uptake at 0.156 mM; assay type: functional; design: scale not given: the % may be the effect or the level left
# [28] = system: Trypanosoma cruzi; test: Inhibition of respiration in Trypanosoma cruzi Tulahuen 2 assessed as oxygen uptake at 0.622 mM; assay type: functional; design: scale not given: the % may be the effect or the level left
# [29] = system: Trypanosoma cruzi; test: Inhibition of respiration in Trypanosoma cruzi Tulahuen 2 assessed as oxygen uptake at 0.467 mM; assay type: functional; design: scale not given: the % may be the effect or the level left
# [30] = system: Trypanosoma cruzi; test: Inhibition of respiration in Trypanosoma cruzi Tulahuen 2 assessed as oxygen uptake at 0.325 mM; assay type: functional; design: scale not given: the % may be the effect or the level left
IC50 [5],SMILES,Activity [1],Activity [2],Activity [3],Activity [4],Activity [7],Activity [8],also measured
> 50 µM,O=[N+]([O-])c1ccc2c(c1)c(O)nn2Cc1ccccc1CN1CCCCC1,<60%,75%,<60%,<60%,Non-toxic,Non-toxic,Activity [6]: 109%
,CN(C)CCCCCn1nc(O)c2cc([N+](=O)[O-])ccc21,,29%,,,Non-toxic,Non-toxic,
,O=[N+]([O-])c1ccc2c(c1)c(O)nn2CCOCCN1CCCCC1,,53%,,,Non-toxic,Non-toxic,
,CN(C)c1ccc(C(=C2C=CC(=[N+](C)C)C=C2)c2ccc(N(C)C)cc2)cc1.[Cl-] [GENTIAN VIOLET],,100%,,,,,
,CN(C)CCOCCn1nc(O)c2cc([N+](=O)[O-])ccc21,,18%,,,Non-toxic,Non-toxic,
,COc1nn(CCOCCN(C)C)c2ccc([N+](=O)[O-])cc12.Cl,,77%,,,Non-toxic,Non-toxic,
6.6 µM,O=[N+]([O-])c1ccc2c(c1)c(OCc1ccccc1)nn2CCCCCN1CCCCC1,100%,34%,100%,100%,Toxic,Toxic,Activity [9]: 109%; Activity [10]: 111%; Activity [11]: 100%
,O=[N+]([O-])c1ccc2c(c1)c(O)nn2CCCCCN1CCCCC1,<60%,36%,<60%,<60%,Non-toxic,Non-toxic,
,N=C(N)c1ccc(OCCCCCOc2ccc(C(=N)N)cc2)cc1 [PENTAMIDINE],100%,,100%,100%,,,
,O=C(Cn1ccnc1[N+](=O)[O-])NCc1ccccc1 [BENZNIDAZOLE],,,,,,,Activity [18]: Active; Activity [19]: Active; survival at 1512 h [20]: 60%
,O=[N+]([O-])c1ccc2c(c1)c(OCc1ccccc1)nn2CCOCCN1CCCCC1,,44%,,,Non-toxic,Non-toxic,
,CN(C)Cc1ccccc1Cn1nc(O)c2cc([N+](=O)[O-])ccc21,,0%,,,Non-toxic,Non-toxic,
12.5 µM,CN(C)CCCCCn1nc(OCc2ccccc2)c2cc([N+](=O)[O-])ccc21,,100%,,,Toxic,Toxic,Activity [27]: 99%; Activity [28]: 7%; Activity [22]: Dose-dependent effect; Activity [29]: 11%; Activity [30]: 12%
,COc1nn(CCCCCN2CCCCC2)c2ccc([N+](=O)[O-])cc12.Cl,<60%,100%,<60%,<60%,Toxic,Toxic,

SMILES,IC50 [5],Activity [1],Activity [2],Activity [3],Activity [4],Activity [7],Activity [8],also measured
COc1nn(CCOCCN2CCCCC2)c2ccc([N+](=O)[O-])cc12.Cl,> 50 µM,<60%,85%,<60%,<60%,Non-toxic,Non-toxic,Activity [12]: Active; Activity [13]: 130%; survival at 1512 h [14]: 87.5%; Activity [15]: 155%; Activity [16]: Active; Activity [17]: 118%
CN(C)CCOCCn1nc(OCc2ccccc2)c2cc([N+](=O)[O-])ccc21,16.4 µM,100%,87%,100%,100%,Non-toxic,Non-toxic,Activity [21]: 9%; Activity [12]: Active; Activity [22]: Dose-dependent effect; Activity [23]: 66%; survival at 1512 h [14]: 87.5%; Activity [16]: Active; Activity [24]: 11%; Activity [25]: 10%; Activity [26]: 10%
